Data from patent publication US8119844B2, “Alcohol production process” (LanzaTech New Zealand Limited, priority 2008, dated 2012).
Where two headings read alike, the source gives them in different places.

Experiments:
[1] = system: Clostridium pasteurianum; settings: for Acetate Consumption / Acetate Consumption (percent of starting acetate) / Final Acetate / Final Butanol / Final Butyrate / Glycerol Consumption: 30 g/l glycerol, after 3 days of fermentation
Protocol: LM31 media at pH 7.4 was prepared as follows. All ingredients with the exception of Cysteine-HCl were mixed in 400 ml distilled water. This solution was made anaerobic by heating to boiling and allowing it to cool to room temperature under a constant flow of N2 gas. Once cool, the Cysteine-HCl was added and the pH of the solution adjusted to 7.4 before making the volume up to 1000 ml; anaerobicity was maintained throughout the experiments.
Bacteria: Clostridium pasteurianum were obtained from the German Resource Centre for Biological Material (DSMZ). The accession number given to the bacteria is DSMZ 525.
Incubation was performed in 234 ml sealed serum bottles each containing 50 ml of the media LM31. The 184 ml headspace of each serum bottle was first flushed three times with N2 gas, before being evacuated and filed to an overpressure of 5 psig. Each bottle was inoculated with 1 ml of a Clostridium pasteurianum culture. A shaking incubator was used and the reaction temperature was maintained at 37° C.
Media samples were taken at intervals over a 3 day period. Each time the media was sampled care was taken to ensure that no gas was allowed to enter into or escape from the serum bottle.
All samples were used to establish the absorbancy at 600 nm (spectrophotometer) and the level of substrates and products (GC or HPLC). HPLC was routinely used to quantify the level of glycerol, methanol, acetate, and ethanol. When n-butyric acid and butanol were present, GC was used in combination with HPLC to quantify the levels of all substrates and products (glycerol, acids and alcohols).
The aim was to test the effect of initial acetate concentration on glycerol fermentation by Clostridium pasteurianum to produce butanol.

[2] = system: Clostridium pasteurianum; experiment: Effect of methanol on the fermentation of glycerol to butanol (serum bottle); assay type: cell-based; settings: for Acetate Consumption / Final Butanol / Final Butyrate / Glycerol Consumption: 30 g/l glycerol, 2 g/l acetate, after 36 hours of fermentation
Source text: In this experiment, the effect of methanol on the conversion of commercial glycerol to butanol was studied. […] In addition, acetate and glycerol consumption decreased.

[3] = system: Clostridium pasteurianum; experiment: Comparison of fermentation of commercial glycerol and glycerol from biodiesel waste for butanol production; assay type: cell-based; settings: 30 g/l commercial glycerol, 2 g/l acetate, after 36 hours of fermentation
Protocol: Thirty grams biodiesel waste was dissolved in water up to 100 ml and stirred until the solution was homogenous. While stirring, 10% Hydrochloric acid solution was added until pH was below 3.0, so total coagulation of free fatty acid would occur. In order to improve the phase separation, the sample was centrifuged for 1 minute at 4,000 g. At this stage 3 phases could be seen: the top layer appeared oily and contained mostly FAME (Fatty acid methyl ester); the middle phase contained mostly coagulated free fatty acids; and, the bottom phase (aqueous phase) was clear and contained mostly water, glycerol and methanol. The aqueous phase was withdrawn carefully, filtered on a 0.2 μm filter and pH was then raised to pH 7.0 by addition of Sodium hydroxide. At this stage, methanol was evaporated by heating the solution under stirring and vacuum maintained with a water-jet. Finally water can be added in order to dilute the glycerol solution.
The aim of this experiment was to test the glycerol obtained from biodiesel waste, in a fermentation with Clostridium pasteurianum to produce butanol, in the presence of 2 g/l acetate initial concentration. The conversion of commercial glycerol (first row) was compared with glycerol obtained from biodiesel waste containing methanol (second row) or where methanol was evaporated (last row). […] Levels of butanol and biomass were the highest for bacteria growing on glycerol obtained from biodiesel, where methanol was evaporated. Acetate (50%) was also consumed.

CC(=O)O [Acetate, Acetic acid, glacial, 99.8%]
Acetate Consumption ([1]; starting acetate 1.4 g/l): 0.4 g/L | Acetate Consumption (percent of starting acetate) ([1]; starting acetate 1.4 g/l): 28% | Final Acetate ([1]; starting acetate 1.4 g/l): 1.0 g/L | Final Butanol ([1]; starting acetate 1.4 g/l): 3.0 g/L | Final Butyrate ([1]; starting acetate 1.4 g/l): 0.5 g/L | Glycerol Consumption ([1]; starting acetate 1.4 g/l): 12 g/L | Acetate Consumption ([1]; starting acetate 2.2 g/l): 1.0 g/L | Acetate Consumption (percent of starting acetate) ([1]; starting acetate 2.2 g/l): 45% | Final Acetate ([1]; starting acetate 2.2 g/l): 1.2 g/L | Final Butanol ([1]; starting acetate 2.2 g/l): 3.5 g/L | Final Butyrate ([1]; starting acetate 2.2 g/l): 0.7 g/L | Glycerol Consumption ([1]; starting acetate 2.2 g/l): 13 g/L | Acetate Consumption ([1]; starting acetate 3.5 g/l): 1.6 g/L | Acetate Consumption (percent of starting acetate) ([1]; starting acetate 3.5 g/l): 45% | Final Acetate ([1]; starting acetate 3.5 g/l): 1.9 g/L | Final Butanol ([1]; starting acetate 3.5 g/l): 3.1 g/L | Final Butyrate ([1]; starting acetate 3.5 g/l): 1.1 g/L | Glycerol Consumption ([1]; starting acetate 3.5 g/l): 12 g/L | acetate consumed in the course of the reaction ([1]; increasing amounts of acetate added at the start of the fermentation): up to 45%

CO [Methanol]
Acetate Consumption ([2]; starting methanol 5.6 g/l): 0.8 g/L | Final Butanol ([2]; starting methanol 5.6 g/l): 2.4 g/L | Final Butyrate ([2]; starting methanol 5.6 g/l): 0.8 g/L | Glycerol Consumption ([2]; starting methanol 5.6 g/l): 14 g/L | Acetate Consumption ([2]; starting methanol 11.2 g/l): 0.8 g/L | Final Butanol ([2]; starting methanol 11.2 g/l): 2.0 g/L | Final Butyrate ([2]; starting methanol 11.2 g/l): 0.6 g/L | Glycerol Consumption ([2]; starting methanol 11.2 g/l): 13 g/L | Acetate Consumption ([2]; starting methanol 16.3 g/l): 0.6 g/L | Final Butanol ([2]; starting methanol 16.3 g/l): 1.1 g/L | Final Butyrate ([2]; starting methanol 16.3 g/l): 0.6 g/L | Glycerol Consumption ([2]; starting methanol 16.3 g/l): 11 g/L | effect on the bacteria and butanol production ([2]; increasing amounts of methanol, commercial glycerol): increasing inhibitory effect

OCC(O)CO [commercial glycerol, glycerol]
Acetate Consumption [3]: 1.0 g/L | Acetate Consumption (percent) [3]: 50% | Final Butanol [3]: 2.9 g/L | Final Butyrate [3]: 0.7 g/L | Glycerol Consumption [3]: 15 g/L
